The logP is the decadic logarithm of the partition coefficient of the neutral form, usually between octanol and water. Read a low logP as lower lipophilicity.

Results on 141 molecules are retold here after the SangsterLogP compilation.

With `CN`, the logP was -0.57.
Turning to `Cc1cc(C(=O)NN)ccn1`, the logP is -0.37.
Regarding `CCC1(CCC(C)C)C(=O)NC(=O)NC1=O`, the logP was determined as 2.07.
In the case of `CCCCc1ccc(S(N)(=O)=O)cc1` it was 2.45; in that of `COc1ccc(OC)c(CC(C)N)c1` (stereo unspecified), 1.72.
The figure for `O=[N+]([O-])c1ccc2ccc[n+]([O-])c2c1` is 0.36; for `CCCCCCCN` it is 2.57; for `Nc1nc2[nH]nnc2c(=O)[nH]1` it is -0.71.
The figure for `O=C1C=CC(=O)C=C1` is 0.2.
As to `Nc1cccc([N+](=O)[O-])c1`, the logP turned out to be 1.37.
The figure for `Oc1c(Br)cc(Br)c(O)c1Br` is 4.37; for `NCCc1ccc(O)c(O)c1` it is -0.98.
In the case of `O=C(O)c1ccc(O)cc1O` it was 1.63; in that of `C=CC`, 1.77; in that of `CC=CC`, 2.33.
The figure for `N#Cc1ccc(/C=C/NC=O)cc1` is 1.62.
`Nc1ncnc2c1ncn2[C@H]1C=C[C@@H](CO)O1`: the logP was -0.5.
In the case of `COc1ccc2c(c1)c(CC(=O)O)c(C)n2C(=O)c1ccc(Cl)cc1` it was 4.27.
The figure for `NC(=O)CCCc1cccnc1` is -0.08; for `C1CNCCN1` it is -1.5.
In the case of `CCn1cc(C(=O)O)c(=O)c2ccc(C)nc21` it was 1.59.
`CC(=O)C(C#N)=NNc1ccc(SC(F)(F)F)cc1` yielded a logP of 5.04.
For the molecule `Nc1ccc(S(=O)(=O)c2ccc(N)cc2)cc1`, the logP worked out at 0.97.
In the case of `O=[N+]([O-])c1ccc(Br)cc1`, the logP came to 2.55.
The molecule `O=C(O)CCCCCCCC(=O)O` gave a logP of 1.57.
`Fc1ccc(F)cc1` showed a logP of 2.13.
The figure for `CSc1ccccc1` is 2.74; for `Cc1ccc2cccc(C)c2c1` it is 4.44; for `CCCCCC1Nc2cc(C(F)(F)F)c(S(N)(=O)=O)cc2S(=O)(=O)N1` (stereo unspecified) it is 2.66.
With `CC(C)C(=O)C(C#N)=NNc1cc(C(F)(F)F)ccc1Cl`, the logP amounted to 5.31.
In the case of `Nc1nc(S)c2nc[nH]c2n1` it was -0.07.
Turning to `Nc1ncnc2c1ncn2[C@@H]1O[C@H](CO)C[C@H]1O`, the logP is -0.61.
In the case of `COC(=O)C(C#N)=NNc1ccccc1C(F)(F)F` it was 3.7; in that of `c1ccc2[nH]nnc2c1`, 1.44.
The figure for `Cc1cn([C@H]2C[C@H](O)[C@@H](CO)O2)c(=O)[nH]c1=O` is -0.93; for `Cc1cccc2c1c([N+](=O)[O-])cc[n+]2[O-]` it is 1.36.
On to `C[C@]12CCC(=O)C=C1CC[C@@H]1[C@@H]2[C@@H](O)C[C@]2(C=O)[C@@H](C(=O)CO)CC[C@@H]12`, for which the logP amounted to 1.08.
Molecule `O=C1c2ccccc2C(=O)C1c1ccccc1` came in with a logP of 2.9.
In the case of `CCCNCC(C)C` it was 2.07; in that of `[N-]=[N+]=N[C@H]1C[C@H](n2ccc(=O)[nH]c2=O)O[C@@H]1CO`, -0.32.
`O=[N+]([O-])c1cc[n+]([O-])c2c([N+](=O)[O-])cccc12` registered a logP of 0.76.
In the case of `C=CCC1(CCCC)C(=O)NC(=O)NC1=O` it was 2.31.
In the case of `Cn1c([N+](=O)[O-])cnc1COC(N)=O` it was -0.38.
In the case of `C=CCc1ccccc1OCC(O)CNC(C)C` (stereo unspecified) it was 3.1.
`Nc1ccc2cc3ccccc3nc2c1` displayed a logP of 2.77.
In turn, `CC(=O)OCC1=C(C(=O)O)N2C(=O)[C@@H](NC(=O)Cc3cccs3)[C@H]2SC1` registered a logP of 0.
In the case of `CNC(=O)Oc1ccccc1OC(C)C` it was 1.52; in that of `COc1cc(CCN)cc(OC)c1OC`, 0.78.
In the case of `O=C(O)c1ccccc1Nc1cccc(C(F)(F)F)c1` it was 5.25; in that of `O=Nc1ccc2ccccc2c1O`, 2.46; in that of `CC/C(=C(/CC)c1ccc(O)cc1)c1ccc(O)cc1`, 5.07.
The figure for `NC(=O)c1cccnc1` is -0.37; for `O=C(O)c1cc(Br)ccc1O` it is 3.23.
Regarding `NC(=O)c1ncccc1O`, the logP worked out at 0.65.
The molecule `Cc1c[nH]c2ccccc12` showed a logP of 2.6.
The figure for `CCc1ccccc1OCC(=O)O` is 2.53.
The figure for `CCC(C)n1nnc2ccccc21` (stereo unspecified) is 2.31.
Turning to `Nc1ccc(C(=O)O)c([N+](=O)[O-])c1`, the logP came to 0.38.
Consider `CCN(CC)CCNC(=O)c1ccc(N)cc1`, for which the logP amounted to 0.88.
On to `CC(C)(C)NC[C@H](O)COc1ccccc1C1CCCC1`, for which the logP is 4.15.
`CN(C)c1ccc(S(N)(=O)=O)cc1` returned a logP of 0.76.
As to `CN1C(=O)C(=O)c2ccccc21`, the logP was found to be 0.58.
`CN(C)CCC(c1ccc(Cl)cc1)c1ccccn1` (stereo unspecified): the logP stood at 3.38.
In the case of `C/C=N/O` it was -0.13.
The figure for `CCCCC1(CC)C(=O)NC(=O)NC1=O` is 1.73.
`Cc1cccc(OCC(=O)O)c1` returned a logP of 1.78.
With `Cc1ccc(CO)cc1`, the logP was found to be 1.58.
In the case of `N#Cc1ccccc1O` it was 1.61; in that of `c1ccc(-c2cccc(-c3ccccc3)n2)cc1`, 4.82; in that of `COC1=CC(=O)C[C@@H](C)[C@]12Oc1c(Cl)c(OC)cc(OC)c1C2=O`, 2.18.
On to `c1ccc2occc2c1`, for which the logP was found to be 2.67.
In the case of `CNC(C)Cc1ccccc1` (stereo unspecified) it was 2.07; in that of `O=[N+]([O-])c1ccccc1O`, 1.79.
`CC(C)(c1ccc(O)cc1)c1ccc(O)cc1` showed a logP of 3.32.
On to `O=c1ccn(C2C=CC(CO)O2)c(=O)[nH]1` (stereo unspecified), for which the logP was -1.07.
The molecule `COc1ccccc1` came in with a logP of 2.11.
In the case of `Nc1ccccc1Cl` it was 1.9; in that of `Cc1cc2ccccc2n1C`, 2.82.
The figure for `COC(=O)c1cccnc1` is 0.83; for `CN(C)CCN1c2ccccc2Sc2ccccc21` it is 4.2; for `CNC(=O)Oc1ccc2c(c1)[C@]1(C)CCN(C)[C@@H]1N2C` it is 1.58.
Take `CN(Cc1ccccc1)c1ccccc1`: the logP came to 4.22.
For `CCOc1ccccc1O`, the logP worked out at 1.68.
As for `Nc1ccn([C@H]2C[C@H](O)[C@@H](CO)O2)c(=O)n1`, the logP is -1.77.
The figure for `N#C/C(=C\c1ccccc1)C(N)=O` is 1.56.
With `CCCCN(CCCC)N=O`, the logP was 2.63.
In turn, `COC(=O)C(C#N)=NNc1cc(Cl)cc(Cl)c1` yielded a logP of 4.5.
Consider `CN(C)N=O`, for which the logP is -0.57.
`CCOC(=O)C(C#N)=NNc1cc(Cl)c(Cl)c(Cl)c1` returned a logP of 5.03.
For `CNC(=O)Oc1cccc([N+](=O)[O-])c1`, the logP is 1.39.
On to `CCOC(=O)C1(c2ccccc2)CCN(C)CC1`, for which the logP is 2.72.
In the case of `CC(C)c1nnc(N2CCOCC2)n(N)c1=O`, the logP was found to be 0.49.
The figure for `Cc1ccc([N+](=O)[O-])cc1` is 2.37; for `O=[N+]([O-])c1cc[n+]([O-])c2ccccc12` it is 1.09; for `O=C(O)c1ccccc1I` it is 2.4.
In the case of `Nc1ccc(S(=O)(=O)Nc2nccs2)cc1`, the logP is 0.05.
The figure for `CCOc1ccc(OC(=O)NC)cc1` is 1.63; for `NNC(=O)c1ccncc1` it is -0.7.
`O=C(c1ccccc1)c1ccncc1` returned a logP of 1.98.
Regarding `O=C(O)Cc1ccc(O)cc1`, the logP stood at 0.75.
Take `CNC(=O)Oc1ccc(C)c(C)c1`: the logP was determined as 2.09.
As to `CN1CCN(CCCN2c3ccccc3Sc3ccc(C(F)(F)F)cc32)CC1`, the logP stood at 5.03.
In the case of `OCc1ccncc1` it was 0.06; in that of `CSc1nnc(-c2ccccc2)c(=O)n1N`, 1.66.
`c1ccc2cc3c(ccc4ccccc43)cc2c1` returned a logP of 5.76.
The figure for `CCc1ccc(S(N)(=O)=O)cc1` is 1.31.
`ClC(Cl)(Cl)Cl` showed a log partition coefficient (logP) of 2.83.
In the case of `O=C1[C@H]2CC=CC[C@H]2C(=O)N1SC(Cl)(Cl)Cl` it was 2.8; in that of `O=C(O)COc1ccccc1F`, 1.39; in that of `COC(=O)C(C#N)=NNc1cc(Cl)c(Cl)cc1Cl`, 5.15.
In turn, `OCCN1CCN(CC/C=C2\c3ccccc3Sc3ccc(C(F)(F)F)cc32)CC1` gave a log partition coefficient (logP) of 4.51.
On to `CCOCCO`, for which the logP was -0.32.
In the case of `CBr` it was 1.19.
In the case of `c1ccc2nccnc2c1` it was 1.32; in that of `Nc1cccnc1`, 0.11; in that of `CCN(CC)c1ccccc1`, 3.31.
The figure for `N#Cc1cccc(OCC(=O)O)c1` is 0.95.
`Clc1ccccc1-c1ccccc1` had a logP of 4.53.
The figure for `CC(=O)Nc1ccc(I)cc1` is 2.71; for `Brc1ccc2[nH]ccc2c1` it is 3; for `C(=C\c1ccccc1)/c1ccccc1` it is 4.81.
With `CNC(=O)Oc1cc(C)ccc1C(C)C`, the logP was found to be 3.11.
In the case of `Nc1cccc(O)c1` it was 0.21; in that of `Cc1c(C)c(C)c(C)c(C)c1C`, 5.11; in that of `O=[N+]([O-])c1cccc2ccc[n+]([O-])c12`, 0.04.
As for `NC(=O)C(c1ccccc1)c1ccccn1` (stereo unspecified), the logP was 0.83.
In the case of `O=C(O)Cc1cccc(I)c1` it was 2.62; in that of `c1cn[nH]c1`, 0.26.
`CCCNCCC` had a logP of 1.67.
In the case of `NC(=O)N(CCCl)N=O` it was 0.57.
The figure for `N#Cc1ccc(C(=O)O)cc1` is 1.56; for `CSCC[C@H](N)C(=O)O` it is -1.87; for `NC(=O)CCCn1nnc2ccccc21` it is 0.37.
In the case of `NS(=O)(=O)c1ccccc1` it was 0.31; in that of `O=[N+]([O-])c1ccc(Cl)cc1`, 2.39.
The molecule `CN/C(=C\[N+](=O)[O-])NCCSCc1ccc(CN(C)C)o1` yielded a logP of 0.27.
On to `CCC#N`, for which the logP is 0.16.
As for `CNC(=O)Oc1cc(C)cc(C)c1`, the logP came out at 2.23.
The figure for `CCCCC(CC)CN` (stereo unspecified) is 2.82; for `O=[N+]([O-])c1cccc2ccccc12` it is 3.19; for `Cc1ccc(C)cc1` it is 3.15.
